For experiment [1], the system named is Alzheimer's disease. Put plainly: phase III clinical trials (TRx-237-005 and TRx-237-015) for Alzheimer's disease. The format is in vivo, patients. The conditions noted are these: 8, 150, 200 or 250 mg/day; both trials. From the text:
Data from a phase III clinical trials (TRx-237-005 and TRx-237-015) for Alzheimer's disease was obtained. These clinical trials involved 1162 patients. Before the trials began, each patient's baseline measurements were collected, which included the patient's sex, age, baseline ADAS-Cog and mini-mental state examination (MMSE) score.
Patients were subsequently categorised into those with ‘low’ and ‘high’ plasma levels using a threshold based on the lower limit of quantitation of the assay on Day 1. […] Additionally, each patient entered the trial either already using the standard care of therapy or not. This yielded D=4 possible combinations: “low-using”, “low-none”, “high-using” and “high-none”. The trial spanned 5 visits with 13 weeks in between each visit. At each visit t, every patient i's progressive ADAS-Cog score, Yti∈ ? , was measured and recorded.

In experiment [2] the test system is Alzheimer's disease. Particulars: cited from earlier work.
[3] abbreviates: group with 'high' plasma levels, threshold based on lower limit of quantitation of the assay on Day 1.

As to `CN(C)c1ccc2c(c1)Sc1cc(N(C)C)ccc1N2.CS(=O)(=O)O.CS(=O)(=O)O` [LMTM], in the experiment on Alzheimer's disease [1], the dose-response entry is recorded as “lack of dose-response”. Further, in the experiment on Alzheimer's disease [2] (8 mg/day range), the “concentration-response relationships for steady-state plasma levels” value was “steep concentration-response relationships”. Moreover, in the experiment with Alzheimer's disease [2] (setting [3]), the “differences in brain atrophy” value was “highly significant differences” and the “differences in cognitive decline” value is “highly significant differences”.

Source of the values: patent publication US20250069757A1, “METHOD OF PREDICTING ADAS-COG SCORE” (WisTa Laboratories Ltd., priority 2021, published 2025).
